Literature values in US20130295052A1, “NOVEL CONJUGATES FOR TARGETED DRUG DELIVERY” (priority 2010, published 2013).
Read-outs that look alike come from different tables or passages of the source.

- grade 4 neutropenia (<500 cells/mm3), patients (60 mg/m2): 75%
- grade 4 neutropenia (<500 cells/mm3), patients (100 mg/m2): 85%
- neutropenia (<2,000 neutrophils/mm3) occurrence (60-100 mg/m2): virtually in all patients
Compound: CC(=O)O[C@@]12CO[C@@H]1C[C@H](O)[C@@]1(C)C(=O)[C@H](O)C3=C(C)[C@@H](OC(=O)[C@H](O)[C@@H](NC(=O)OC(C)(C)C)c4ccccc4)C[C@@](O)([C@@H](OC(=O)c4ccccc4)[C@H]21)C3(C)C [Taxotere, Docetaxel]
